This note sets out measurements from patent publication US20110212031A1, “NOVEL SUBSTITUTED AZABENZOXAZOLES” (priority 2008, published 2011).

The target of test [1] is T1, human MAO-B (Homo sapiens, UniProt P27338).
T1 construct: purchased BD Biosciences Discovery Labware, Woburn Mass; (BD Supersomes Enzymes); host or cells: insect cells
T1 sequence (P27338 1-520): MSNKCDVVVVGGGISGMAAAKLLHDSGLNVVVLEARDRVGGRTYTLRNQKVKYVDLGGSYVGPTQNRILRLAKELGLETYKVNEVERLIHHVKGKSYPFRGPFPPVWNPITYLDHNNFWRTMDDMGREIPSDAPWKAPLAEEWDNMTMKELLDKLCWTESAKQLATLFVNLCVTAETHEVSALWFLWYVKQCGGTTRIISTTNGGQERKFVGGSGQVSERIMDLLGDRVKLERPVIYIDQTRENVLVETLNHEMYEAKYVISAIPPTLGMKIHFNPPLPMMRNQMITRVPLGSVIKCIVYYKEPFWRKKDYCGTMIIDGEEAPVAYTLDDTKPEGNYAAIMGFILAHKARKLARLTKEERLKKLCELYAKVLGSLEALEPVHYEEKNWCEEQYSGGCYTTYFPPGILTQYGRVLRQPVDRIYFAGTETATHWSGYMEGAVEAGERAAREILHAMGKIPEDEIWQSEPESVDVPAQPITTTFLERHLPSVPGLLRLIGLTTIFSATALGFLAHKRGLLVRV
The test is described as follows: Monoamine oxidase B functional assay (kynuramine deamination, fluorescence). In kind it is biochemical. Particulars: membrane fractions from insect cells expressing human MAO-B; kynuramine substrate. As to the method:
Functional assay: MAO-B containing membrane fractions prepared from insect cells expressing human MAO-B (BD Supersomes Enzymes, BD Biosciences Discovery Labware, Woburn Mass.) were used as a source of MAO-B. Assays were conducted in 96-well plates in a final volume of 200 μL. The assay buffer was 0.1 M potassium phosphate (pH 7.4). The assay system consisted of three mixes: a) inhibitor dilution mix, which was the assay buffer, b) substrate/buffer/control insect cell protein mix: 4× substrate-80 μM kynuramine and 4× control insect cell protein, and c) enzyme/buffer mix: 4× concentrate of MAO-B prepared in assay buffer. The final MAO-B concentration was 0.015 mg/mL. The final total, normalized protein concentration, using control insect protein, was 0.06 mg/mL. Test compounds were serial diluted 3-fold in the inhibitor dilution mix directly in the 96-well plate (total final volume of 100 μL). Fifty μL of the substrate/buffer mix was added to each well. The 96-well plate, containing test compound and MAO substrate (150 μL total volume), was preincubated to 37° C. The reaction was initiated with 50 μL of enzyme/buffer mix. […] Product formation was quantified by comparing the fluorescence emission of the samples to that of known amounts of authentic metabolite standard, 4-hydroxyquinoline, the product formed from kynuramine deamination. […]

The target in test [2] is T1, human MAO-B. The test is described as follows: MAO-B radioligand binding assay ([3H]-DMAB or [3H] 5-Fluoro-2-(1-methyl-1H-indazol-5-yl)-oxazolo[5,4-b]pyridine). Conditions: membrane fractions from insect cells expressing human MAO-B; radioligand 8-10 nM. As to the method:
Radioligand binding assay: MAO-B containing membrane fractions prepared from insect cells expressing human MAO-B (BD Supersomes Enzymes, BD Biosciences Discovery Labware, Woburn Mass.) were used as a source of MAO-B. [^3H]-DMAB or [^3H] 5-Fluoro-2-(1-methyl-1H-indazol-5-yl)-oxazolo[5,4-b]pyridine were synthesized at a specific activity of ˜80 Ci/mmol. The final concentration of radioligand for tissue homogenate binding assay was 8-10 nM. MAO-B membrane fractions were diluted with phosphate buffered saline (PBS) to 0.25 mg/mL from original 5 mg/mL volume and 200 μl was used in assay for a final mass of 50 μg/assay tube. Unlabeled test compounds were dissolved in dimethylsulfoxide (DMSO) at 1 mM. Dilution of test compound to various concentrations was made with PBS containing 2% DMSO. Total binding was defined in the absence of competing compound, and non-displaceable binding was determined in the presence of 1 μM unlabeled self block. Compound dilutions (10×) were added into the assay tube (25 μL each per tube, separately) containing 200 μL diluted MAO-B membrane fraction, and the tubes were pre-incubated at room temperature for 10 minutes. […] Filters were punched into scintillation vials and counted in 2 mL Ultima Gold on Perkin Elmer Tri-Carb 2900TR for 1 minute. […]

One may read the Ki as the dissociation constant of the complex between target and ligand, obtained from inhibition or displacement. The molecule `Cn1ccc2cc(-c3nc4ccc(F)nc4o3)cnc21` came in with a Ki at human MAO-B [1] of 0.018 µM.

The IC50 is the concentration that inhibits the measured activity by half. A high value points to weaker potency. As for `Cn1ccc2cc(-c3nc4ccc(F)nc4s3)cnc21`, the IC50 on human MAO-B [2] was 0.0037 µM.

For the molecule `CN(C)c1ccc(-c2nc3ccc(F)nc3o2)cc1`, at human MAO-B [2], the IC50 was found to be 0.031 µM.
